Test results: PubChem BioAssay AID1117322
Active and inactive are the calls of the source. The rule behind the calls is not given here.

Test system: RKO cells viability, CellTiter-Glo ATP luminescence
Assay: RKO cell viability reduction, dose response, CellTiter-Glo luminescence (AID 1117322)

| SMILES | IC50 |
| --- | --- |
| O=Cc1ccc(O)c(O)c1O | 6230 nM (inactive) |
| CC(C)n1c(/C=C/[C@@H](O)C[C@@H](O)CC(=O)O)c(-c2ccc(F)cc2)c2ccccc21 | 19200 nM (inactive) |
| OCCN1CCN(CC/C=C2/c3ccccc3Sc3ccc(C(F)(F)F)cc32)CC1 | 318 nM |
| CC(=O)[O][Hg][c]1ccccc1 | 1200 nM |
| O=C(O)C1(C(=O)O)CCC1.[NH2-].[NH2-].[Pt+2] | > 20000 nM (inactive) |
| CCCCCCCCCCCCCC[N+](C)(C)C | 147 nM |
| O=C1[O][Bi][O]c2ccccc21 | > 20000 nM (inactive) |
